Data as given in patent US12569499B2, “Intravenous formulations of RK-33” (NATSAR PHARMACEUTICALS, INC., priority 2021, dated 2026).
Converted amounts (≈) assume the structure as drawn.

How the values were obtained:
[1] = Formulation appearance (color, visual precipitation, clarity); format: physicochemical; conditions: with 50% PEG 200 and 4% HPβCD
Protocol: RK-33 formulations comprising of various combinations of solvents and polymers were prepared and analyzed for color, visual precipitation and clarity.
Formulations comprising of various combinations of solvents and polymers were prepared with an intralipid emulsion used to provide calories to patients who receive an injection into the vein. The prepared formulations were then analyzed for color, visual precipitation and clarity.
Formulations comprising of various combinations of solvents and polymers, including Captisol®, were prepared. The formulations were analyzed for color, visual precipitation and clarity.

[2] = Qualitative solubility of RK-33 in various solubilizers; format: physicochemical; conditions: for solubility: thermodynamic from solid
Protocol: The degree of solubility of RK-33 in various solubilizers were tested. RK-33 was added to the solubilizer and observed for formation of homogenous molecular dispersion and physical appearance.

tumor cells = conditions: sarcoma, breast, prostate, colorectal, lung, medulloblastoma; cited from earlier work
DDX3 = DDX3 (Homo sapiens, UniProt O00571); conditions: Oncogene 27(28): 3912-3922 (2008); cited from earlier work
Sequence of DDX3 (O00571 whole entry): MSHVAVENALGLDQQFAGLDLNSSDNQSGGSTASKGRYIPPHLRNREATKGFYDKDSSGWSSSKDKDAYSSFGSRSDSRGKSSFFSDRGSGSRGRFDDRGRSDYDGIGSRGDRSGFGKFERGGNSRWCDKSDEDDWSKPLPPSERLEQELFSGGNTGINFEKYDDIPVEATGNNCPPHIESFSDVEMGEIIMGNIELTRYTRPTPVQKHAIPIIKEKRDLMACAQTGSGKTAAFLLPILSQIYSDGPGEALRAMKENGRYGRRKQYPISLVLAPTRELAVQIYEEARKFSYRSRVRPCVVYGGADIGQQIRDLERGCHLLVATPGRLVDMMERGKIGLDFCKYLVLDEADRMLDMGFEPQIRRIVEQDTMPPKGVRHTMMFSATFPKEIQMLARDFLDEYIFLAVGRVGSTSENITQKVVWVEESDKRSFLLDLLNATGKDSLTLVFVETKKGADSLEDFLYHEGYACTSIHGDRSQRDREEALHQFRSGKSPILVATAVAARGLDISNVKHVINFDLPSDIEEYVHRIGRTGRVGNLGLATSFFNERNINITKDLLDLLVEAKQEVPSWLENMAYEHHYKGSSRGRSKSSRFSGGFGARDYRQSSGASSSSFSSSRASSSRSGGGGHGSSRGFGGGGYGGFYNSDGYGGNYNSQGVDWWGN

SMILES: COc1ccc(Cn2c3ncnc4c(ncn4Cc4ccc(OC)cc4)c-3nc2=O)cc1 [RK-33]
- RK-33 formulation concentration achieved [1]: 2.5 mg/mL
- solubility ([2]; aqueous buffer, solvent Water (pH 4)): < 1 mg/mL
- solubility ([2]; aqueous buffer, solvent Water (pH 8)): < 1 mg/mL
- solubility ([2]; aqueous buffer, solvent Water (pH 10)): < 1 mg/mL
- solubility ([2]; oil or lipid, solvent Corn oil): < 1 mg/mL
- solubility ([2]; oil or lipid, solvent Gelucire 44/14): < 1 mg/mL
- solubility ([2]; oil or lipid, solvent Labrafil 1944CS): < 1 mg/mL
- solubility ([2]; oil or lipid, solvent Miglyol 810): < 1 mg/mL
- solubility ([2]; oil or lipid, solvent Oleic acid): < 1 mg/mL
- solubility ([2]; oil or lipid, solvent Olive oil): < 1 mg/mL
- solubility ([2]; organic solvent or mixture, solvent Benzyl alcohol): > 250 mg/mL
- solubility ([2]; organic solvent or mixture, solvent DMA): > 100 mg/mL
- solubility ([2]; organic solvent or mixture, solvent DMSO): > 100 mg/mL
- solubility ([2]; organic solvent or mixture, solvent Ethanol): < 1 mg/mL
- solubility ([2]; organic solvent or mixture, solvent Glycerin): < 1 mg/mL
- solubility ([2]; organic solvent or mixture, solvent Glycerol formal): > 75 mg/mL
- solubility ([2]; organic solvent or mixture, solvent NMP): > 100 mg/mL
- solubility ([2]; organic solvent or mixture, solvent PEG 200): ~12 mg/mL (≈ 28000 µM)
- solubility ([2]; organic solvent or mixture, solvent PEG300): ~10 mg/mL (≈ 23300 µM)
- solubility ([2]; organic solvent or mixture, solvent PEG 400): 5 to 10 mg/mL (≈ 11700 to 23300 µM)
- solubility ([2]; organic solvent or mixture, solvent PG): 1 to 5 mg/mL (≈ 2330 to 11700 µM)
- solubility ([2]; simulated gastric fluid, solvent Water (pH 1.6)): < 1 mg/mL
- Observation ([2]; solvent Benzyl alcohol): Clear, yellow colored solution
- Observation ([2]; solvent Corn oil): Dispersion
- Observation ([2]; solvent DMA): Clear, yellow colored solution
- Observation ([2]; solvent DMSO): Clear, yellow colored solution
- Observation ([2]; solvent Ethanol): Yellow dispersion
- Observation ([2]; solvent Gelucire 44/14): Dispersion
- Observation ([2]; solvent Glycerin): Dispersion
- Observation ([2]; solvent Glycerol formal): Clear, yellow colored solution
- Observation ([2]; solvent Labrafil 1944CS): Dispersion
- Observation ([2]; solvent Miglyol 810): Dispersion
- Observation ([2]; solvent NMP): Clear, yellow colored solution
- Observation ([2]; solvent Oleic acid): Dispersion
- Observation ([2]; solvent Olive oil): Dispersion
- Observation ([2]; solvent PEG 200): Clear, yellow colored solution
- Observation ([2]; solvent PEG300): Clear, yellow colored solution
- Observation ([2]; solvent PEG 400): Clear, yellow colored solution
- Observation ([2]; solvent PG): Clear, yellow colored solution
- Observation ([2]; solvent Water): Poor wettability
- Observation ([2]; solvent Water (pH 1.6)): Poor wettability
- Observation ([2]; solvent Water (pH 4)): Poor wettability
- Observation ([2]; solvent Water (pH 8)): Poor wettability
- Observation ([2]; solvent Water (pH 10)): Poor wettability
- solubility ([2]; solvent Water): < 1 mg/mL
- Inhibiting the growth of tumor cells (tumor cells): effective results in inhibiting the growth of tumor cells
- Effect of targeting DDX3 on cells (DDX3): promotes cell death
